Here are results for three compounds from patent US20090197942A1, “Method For Producing Polyphenol-Rich Composition” (KYUSAI CO., LTD., priority 2006, published 2009).

The experiment has as its system spontaneously hypertensive rats (SHR). Briefly: Test for inhibiting hypertension in rats (systolic BP at the tail pulse), SHR. It is filed as in vivo. Particulars: for changes in blood pressure (inhibition of hypertension): male SHR, oral once a day for 8 weeks, quercetin 0.3-2.7 mg/day/kg and/or arginine 0.03-0.15 mg/day/kg, FIG. 2. As to the method:
Quercetin was extracted by adding 100 g of washed onion skins to 10 liters of water heated to 80° C., and impurities were removed to obtain quercetin-containing solution. The amount of quercetin contained in the quercetin-containing solution was 0.1 mg/ml. The quercetin-containing solution was appropriately concentrated with an evaporator.
11 week old male spontaneously hypertensive rats (SHR) were divided into A to I groups (9 groups consisting of 5 rats per group) and 11 week old male normotensive Wistar Kyoto (WKY) rats were divided into J to L groups (3 groups consisting of 5 rats per group) so that averages of weight and blood pressure (BP) of the respective groups were nearly equal. They were pre-bred in each breeding cage at 22.0±1.0° C. temperature, 60±10% of humidity and 12 hour light-dark cycles for a week while taking feeds and water ad libitum.
After the pre-breeding period, they were bred with the same conditions for 8 weeks. The quercetin-containing solution obtained in the above-mentioned preparation method and commercially-available arginine powder (produced by Ajinomoto Co., Inc.) were blended together so that amounts of quercetin and arginine would be the respective amounts in Table 7, below. Each mixture was orally administered to the rats in each group once a day. The rats took feed and water ad libitum during the test.
The blood pressure (BP) of rats was measured once a week. After each rat was warmed and climatized itself in a warmer at 38° C. for a few minutes, a systolic BP at the tail pulse was measured with an automatic sphygmomanometer (BP-98A; Softron Co., Ltd.) In each rat, the BP was measured for three times per one measurement and an average of the three measured values was recorded.

`N=C(N)NCCC[C@H](N)C(=O)O` [arginine]: the “changes in blood pressure (inhibition of hypertension)” value was “hypertensions were inhibited”. Consider `O=c1c(O)c(-c2ccc(O)c(O)c2)oc2cc(O)cc(O)c12` [purified quercetin, quercetin], for which the “inhibition of hypertension with purified quercetin instead of quercetin-containing solution” value (same test, purified quercetin used instead of the quercetin-containing solution) is listed as “a similar result can be achieved”. For the compound `O=c1c(O)c(-c2ccc(O)c(O)c2)oc2cc(O)cc(O)c12` [quercetin], the “changes in blood pressure (inhibition of hypertension)” value is reported as “hypertensions were inhibited”.
